Values of other authors as cited in patent US12203859B2, “Device for detecting contamination with photosynthesis inhibitor and method for detecting contamination with photosynthesis inhibitor” (National Institute for Environmental Studies, priority 2019, dated 2025).

Test system: marine phytoplankton
Details: pesticides that directly inhibit photosynthesis of plants

SMILES | fluorescence quantum efficiency of marine phytoplankton
CSc1nc(NC2CC2)nc(NC(C)(C)C)n1 [Irgarol] | decreases
CN(C)C(=O)Nc1ccc(Cl)c(Cl)c1 [Diuron] | decreases
